In patent US20060210479A1 (Dow Global Technologies Inc., priority 2004, published 2006):
Like-named read-outs stand apart in the source and are kept apart here.

Tests used:
[1] = system: cancer cell lines (CaCo-2, Du-145, SK-MES, HLaC, C33-A); settings: relative to control cells
[2] = system: PZ-HPV-7 normal cell line; assay: Chelate permeability: fluorescence of cytoplasm and membrane fractions; assay type: cell-based
NCM-460 cells = settings: for EuQCTME Cell Binding (fluorescence per well): 1 mM
[3] = PZ-HVP-7, 1 mM chelate, 2 h, Table 4

SMILES: CCOP(=O)([O-])CN1CCN(Cc2ccc3cc(C)ccc3n2)CCN(CP(=O)([O-])OCC)CCN(CP(=O)([O-])OCC)CC1.[Eu+3] [Eu-QCTME, Eu(III) N-(6-methyl-2-quinolylmethyl)-N′,N″,N′″-tris(methylenephosphonic acid ethyl ester)-1,4,7,10-tetraazacyclododecane]
- time of initial burst of cell-bound fluorescence [1]: ≤ 5 min
- detectability in normal cells ([2]; PZ-HPV-7): significantly less detectable
- Fluorescence/mg Cytoplasm [2, 3]: 2247
- Fluorescence/mg Membrane [2, 3]: 2293
- EuQCTME Cell Binding (fluorescence per well) (NCM-460 cells; 2 min): 2,757
- EuQCTME Cell Binding (fluorescence per well) (NCM-460 cells; 5 min): 3,325
- EuQCTME Cell Binding (fluorescence per well) (NCM-460 cells; 15 min): 14,042
- EuQCTME Cell Binding (fluorescence per well) (NCM-460 cells; 30 min): 18,535
- EuQCTME Cell Binding (fluorescence per well) (NCM-460 cells; 45 min): 18,737
- EuQCTME Cell Binding (fluorescence per well) (NCM-460 cells; 60 min): 20,666
- EuQCTME Cell Binding (fluorescence per well) (NCM-460 cells; 120 min): 2,388
- EuQCTME Cell Binding (fluorescence per well) (NCM-460 cells; 180 min): 1,598
- EuQCTME Cell Binding (fluorescence per well) (NCM-460 cells; 240 min): 16,682
- Totals: Normalized total area under each curve (AUC) (NCM-460 cells; over 240 min): 44
